“Also recorded” adds a separate entry of the source.
Assays:
[1] = system: human colon adenocarcinoma cell line SW480; assay: alamarBlue tumor cell proliferation assay, SW480; type: cell-based
Protocol: (§1) Tumor cell proliferation was assessed by the calorimetric MTT-like alamarBlue assay that is based on detection of metabolite activity. To determine clonogenic survival the number of singular cells plated was adjusted to obtain about 100 colonies per dish with a given treatment. After 24 h exposure to the different drugs cells were irradiated and then allowed to grow for 8 to 10 days before fixation In methanol/acetic acid (75%/25%) and staining with crystal violet. Only colonies with more than 50 cells/colony were counted. The plating efficiency (PE) of untreated cells was determined and calculated as PE (%)=(scored colonies/number of plated cells)×100. The surviving fraction (SF) with a given treatment was determined by SF=(scored colonies)/(number of plated cells×PE/100). […] Irradiation of cell cultures was carried out at RT in tissue culture dishes (100×100 mm) or in 96-well plates using a Pantak Therapax […] X-ray unit at 0.7 Gy/min. Dosimetry was controlled with a Vigilant-dosimeter.
(§2) Initial proliferation assays were performed to determine the dose range of epothilone B to be applied for combined treatment with ionizing radiation. […] For this combined treatment modality cells were pretreated for 24 h with epothilone B prior to irradiation.

[2] = system: E1A/ras transformed p53-/- MEF; type: cell-based, murine; conditions: for proliferative activity, drug alone / proliferative activity, drug in combination with ionizing radiation: murine fibrosarcoma cell line, low nanomolar range, comparable extent for both drugs
Protocol: as §1, §2

SW480 = assay: clonogenic survival assay, SW480; type: cell-based, human
Protocol: (§3) Tumor cell proliferation was assessed by the calorimetric MTT-like alamarBlue assay that is based on detection of metabolite activity. To determine clonogenic survival the number of singular cells plated was adjusted to obtain about 100 colonies per dish with a given treatment. After 24 h exposure to the different drugs cells were irradiated and then allowed to grow for 8 to 10 days before fixation In methanol/acetic acid (75%/25%) and staining with crystal violet. Only colonies with more than 50 cells/colony were counted. The plating efficiency (PE) of untreated cells was determined and calculated as PE (%)=(scored colonies/number of plated cells)×100. The surviving fraction (SF) with a given treatment was determined by SF=(scored colonies)/(number of plated cells×PE/100). Clonogenic assays were performed at least twice and absence of error bars is due to minimal standard deviations. Irradiation of cell cultures was carried out at RT in tissue culture dishes (100×100 mm) or in 96-well plates using a Pantak Therapax […] X-ray unit at 0.7 Gy/min. Dosimetry was controlled with a Vigilant-dosimeter.
(§4) The clonogenic assay is based on the outgrowth of compact clones from singular cells that are seeded at low density in a petri dish. Clonal outgrowth under the different treatment conditions can be quantified and compared.

E1A/ras-transformed MEFs = assay: clonogenic survival assay, E1A/ras-transformed MEF; type: cell-based, murine; conditions: 24 h drug exposure then irradiation
Protocol: as §3, §4

| Compound | proliferation, response to drug ([1]; SW480, doses up to 500 nM) | proliferative activity, drug alone [2] | proliferative activity, drug in combination with ionizing radiation [2] | clonogenic survival, combined treatment with ionizing radiation (SW480; Paclitaxel-resistant SW480, only at very high concentrations of Paclitaxel) | clonogenic survival, combined treatment with ionizing radiation (E1A/ras-transformed MEFs) | antiproliferative effect of combined treatment with ionizing radiation ([1]; SW480, ionizing radiation 5Gy, 24 h drug pretreatment prior to irradiation) | antiproliferative dose response, drug alone ([1]; SW480, over 72 hours, without irradiation) | antiproliferative effect of combined treatment with ionizing radiation ([2]; E1A/ras transformed p53-/- MEF, ionizing radiation 5Gy, 24 h drug pretreatment prior to irradiation) | antiproliferative dose response, drug alone ([2]; E1A/ras transformed p53-/- MEF, over 72 hours, without irradiation) | clonogenic survival, combined treatment with ionizing radiation (SW480; SW480, 24 h drug exposure then irradiation) | clonogenic survival, sensitivity of SW480 relative to MEFs (SW480; SW480 compared with E1A/ras-transformed MEFs) |
| --- | --- | --- | --- | --- | --- | --- | --- | --- | --- | --- | --- |
| CC(=O)O[C@H]1C(=O)[C@@]2(C)[C@H]([C@H](OC(=O)c3ccccc3)[C@]3(O)C[C@H](OC(=O)[C@H](O)[C@@H](NC(=O)c4ccccc4)c4ccccc4)C(C)=C1C3(C)C)[C@]1(OC(C)=O)CO[C@@H]1C[C@@H]2O [Paclitaxel, reference compound] | refractory | reduced the proliferative activity | reduced the proliferative activity | at least additive effect | at least additive effect | – | – | – | – | – | – |
| C/C(=C\c1csc(C)n1)[C@@H]1C[C@@H]2O[C@]2(C)CCC[C@H](C)[C@H](O)[C@@H](C)C(=O)C(C)(C)[C@@H](O)CC(=O)O1 [epothilone B] | – | reduced the proliferative activity | reduced the proliferative activity | – | at least additive effect | at least additive antiproliferative effect; also recorded: retains full activity | subnanomolar and low nanomolar range; also recorded: enhanced sensitivity; also recorded: retains full activity | at least additive antiproliferative effect | subnanomolar and low nanomolar range | at least additive effect | more sensitive |

From patent US20070129411A1, “Treatment of proliferative diseases with epothilone derivatives and radiation” (priority 2003, published 2007)
